Data from patent US20200157048A1, “(2E,4E)-5-PHENYL-PENTA-2,4-DIEN-1-ONE DERIVATIVE” (BIOWAY., INC, priority 2018, published 2020).
Entries after “also recorded” stand apart in the source; their conditions may differ.

Experiments:
Huh-7 cells = test: Oil-Red O staining and lipid accumulation in steatosis-induced Huh-7 cells; assay type: cell-based; conditions: Huh-7 cells pretreated with OA/PA (R-28: OA); 10, 20 or 40 μM (R-28: 2, 10, 50 μM); 24 hours
Description: Huh-7 cells were maintained in a RPMI1640 medium containing 10% FBS, 100 U/mL of penicillin, and 100 μg/mL of streptomycin. All reagents were purchased from Life Technologies Corporation (Grand Island, N.Y., USA).
The Huh-7 cells were incubated under an atmosphere containing 5% CO2 at 37° C.
In Experimental Example 4, the Huh-7 cells were plated in 24 wells at 3×10^5 cells/mL and incubated under an atmosphere containing 5% CO2 at 37° C.
(§1) One day later, the cell density approached about 80 to 90%. The medium was changed to an FBS-free RPMI1640 medium, and incubated under an atmosphere containing 5% CO2 at 37° C. for 24 hours.
Huh-7 cells of each well, excluding control cells, were pretreated with an OA/PA mixture (however, R-28 is OA) for 1 hour to induce steatosis. Control cells were pretreated with 1% FA-free BSA.
Each well was treated with 10 μM, 20 μM, or 40 μM of a test compound (however, for R-28, 2 μM, 10 μM and 50 μM), and cultured for 24 hours. The control cells and the OA/PA-treated cells were treated with DMSO. […]
Images were obtained from a Cytation 5 Cell Imaging Multi-Mode Reader (BioTek, Winooski, Vt., USA). […]
200 μL of isopropyl alcohol was added to each well, and the cells were collected in a 96-well plate. Absorbance was measured at 540 nm, and data was analyzed.

Pparα mRNA = test: qRT-PCR Pparα mRNA level in steatosis-induced Huh-7 cells; assay type: cell-based, Human; conditions: steatosis-induced (OA/PA) Huh-7 cells; 10 μM; 24 hours
Description: (§2) In Experimental Example 5, the Huh-7 cells were plated in 6 wells at 4×10^5 cells/mL and incubated under an atmosphere containing 5% CO2 at 37° C.
as §1
(§3) Huh-7 cells of each well, excluding control cells, were pretreated with an OA/PA mixture for one hour to induce steatosis. The control cells were pretreated with 1% FA-free BSA.
(§4) Each well was treated with 10 μM of a test compound, and then the cells were incubated for 24 hours. The control cells and OA/PA-treated cells were treated with DMSO. Cells of a positive control were treated with 10 μM of resveratrol, 10 μM of piperine, and 10 μM of YU2014. The medium was entirely aspirated, and the cells were washed with PBS (phosphate buffered saline, Corning, Manassas, Va., USA) two times.
(§5) Total RNA was extracted using a RNeasy RNA isolation kit (Qiagen, Hilden, Germany).
(§6) 10 μL of β-mercaptoethanol (Sigma-Aldrich) per 1 mL of lysis buffer was added, thereby preparing an RNA lysis buffer. […]
(§7) An RNA concentration was measured at O.D. 260 nm using a nanophotometer N60 (Implen, Munich, Germany). The concentration and purity of RNA were measured at O.D. 260/280 nm and calculated as a ratio. […]
(§8) Quantitative analyses for the genes in Table 3 were performed.

Fas mRNA = test: qRT-PCR Fas mRNA level in steatosis-induced Huh-7 cells; assay type: cell-based, Human; conditions: steatosis-induced (OA/PA) Huh-7 cells; 10 μM; 24 hours
Description: as §2, §1, §3, §4, §5, §6, §7, §8

Srebp1c mRNA = test: qRT-PCR Srebp1c mRNA level in steatosis-induced Huh-7 cells; assay type: cell-based, Human; conditions: steatosis-induced (OA/PA) Huh-7 cells; 10 μM; 24 hours
Description: as §2, §1, §3, §4, §5, §6, §7, §8

## CSc1ccc(/C=C/C=C/C(=O)N2CCCCC2)cc1 [YU2014, (2E,4E)-5-(4-(methylthio)phenyl)-1-(piperidine-1-yl)penta-2,4-dien-1-one]
Huh-7 cells
  degree of lipid staining (ORO, absorbance at 540 nm, FIGS. 5-8): not greatly changed
Pparα mRNA
  Pparα mRNA level (FIG. 10): hardly increased; also recorded: no effect
Fas mRNA
  Fas mRNA level (FIG. 13): reduce
Srebp1c mRNA
  Srebp1c mRNA level (FIG. 14): reduce
